# In ChEMBL document CHEMBL3885881, “DrugMatrix”:
# Organism: Rattus norvegicus
# Assay: DrugMatrix - Regimen: Daily Repeat
# Format: toxicity, organism-based, Sprague-Dawley
# Parameters: regimen Daily Repeat, gender Male, age 6-8 weeks
# Conditions: in vivo, po, 1500 mg/kg, route oral GAVAGE, dose level High, vehicle .5 % CMC; for ABSOLUTE BASOPHIL / ABSOLUTE EOSINOPHIL / ABSOLUTE LYMPHOCYTE / ABSOLUTE MONOCYTE / ABSOLUTE SEGMENTED NEUTROPHIL / BASOPHIL / EOSINOPHIL / ERYTHROCYTE COUNT / HEMATOCRIT / HEMOGLOBIN / LEUKOCYTE COUNT / LYMPHOCYTE / MEAN CORPUSCULAR HEMOGLOBIN / MEAN CORPUSCULAR HEMOGLOBIN CONCENTRATION / MEAN CORPUSCULAR VOLUME / MONOCYTE / NEUTROPHIL / NUCLEATED RED BLOOD CELLS / PLATELET COUNT: tissue Blood; for ALANINE AMINOTRANSFERASE / ALBUMIN / ALKALINE PHOSPHATASE / ASPARTATE AMINOTRANSFERASE / BLOOD UREA NITROGEN / CARBON DIOXIDE / CHLORIDE / CHOLESTEROL / CREATINE PHOSPHOKINASE / CREATININE / GLUCOSE / LACTATE DEHYDROGENASE / LIPASE / PHOSPHORUS / POTASSIUM / SODIUM / TOTAL BILIRUBIN / TOTAL PROTEIN / URIC ACID: tissue Plasma
compound,measurement,setting,value
CC[C@H]1OC(=O)[C@H](C)[C@@H](O[C@H]2C[C@@](C)(OC)[C@@H](O)[C@H](C)O2)[C@H](C)[C@@H](O[C@@H]2O[C@H](C)C[C@H](N(C)C)[C@H]2O)[C@](C)(O)C[C@@H](C)C(=O)[C@H](C)[C@@H](O)[C@]1(C)O [ERYTHROMYCIN],ABSOLUTE BASOPHIL,"72 h, time 3 day",0 CELLS/uL
same,ABSOLUTE EOSINOPHIL,"72 h, time 3 day",0 CELLS/uL
same,ABSOLUTE LYMPHOCYTE,"72 h, time 3 day",15179 CELLS/uL
same,ABSOLUTE MONOCYTE,"72 h, time 3 day",91.33 CELLS/uL
same,ABSOLUTE SEGMENTED NEUTROPHIL,"72 h, time 3 day",1229.67 CELLS/uL
same,BASOPHIL,"72 h, time 3 day",0%
same,EOSINOPHIL,"72 h, time 3 day",0%
same,ERYTHROCYTE COUNT,"72 h, time 3 day",6.59 x10E6/uL
same,HEMATOCRIT,"72 h, time 3 day",42.83%
same,HEMOGLOBIN,"72 h, time 3 day",16.43 G/DL
same,LEUKOCYTE COUNT,"72 h, time 3 day",16.5 x10E3/uL
same,LYMPHOCYTE,"72 h, time 3 day",91%
same,MEAN CORPUSCULAR HEMOGLOBIN,"72 h, time 3 day",24.97 pg
same,MEAN CORPUSCULAR HEMOGLOBIN CONCENTRATION,"72 h, time 3 day",38.43 G/DL
same,MEAN CORPUSCULAR VOLUME,"72 h, time 3 day",64.9 fL
same,MONOCYTE,"72 h, time 3 day",0.67%
same,NEUTROPHIL,"72 h, time 3 day",8.33%
same,NUCLEATED RED BLOOD CELLS,"72 h, time 3 day",0 /100WBC
same,PLATELET COUNT,"72 h, time 3 day",1070 x10E3/uL
same,ALANINE AMINOTRANSFERASE,"72 h, time 3 day",65.33 u/L
same,ALBUMIN,"72 h, time 3 day",4.03 G/DL
same,ALKALINE PHOSPHATASE,"72 h, time 3 day",390 u/L
same,ASPARTATE AMINOTRANSFERASE,"72 h, time 3 day",86.33 u/L
same,BLOOD UREA NITROGEN,"72 h, time 3 day",9.33 mg/dL
same,CARBON DIOXIDE,"72 h, time 3 day",34 mmol/L
same,CHLORIDE,"72 h, time 3 day",100 MEQ/L
same,CHOLESTEROL,"72 h, time 3 day",106.33 mg/dL
same,CREATINE PHOSPHOKINASE,"72 h, time 3 day",328 u/L
same,CREATININE,"72 h, time 3 day",0.16 mg/dL
same,GLUCOSE,"72 h, time 3 day",137.67 mg/dL
same,LACTATE DEHYDROGENASE,"72 h, time 3 day",131 u/L
same,LIPASE,"72 h, time 3 day",9 u/L
same,PHOSPHORUS,"72 h, time 3 day",12.3 mg/dL
same,POTASSIUM,"72 h, time 3 day",6.72 MEQ/L
same,SODIUM,"72 h, time 3 day",144.47 MEQ/L
same,TOTAL BILIRUBIN,"72 h, time 3 day",0.1 mg/dL
same,TOTAL PROTEIN,"72 h, time 3 day",6.17 G/DL
same,URIC ACID,"72 h, time 3 day",2.13 mg/dL
same,ABSOLUTE BASOPHIL,"120 h, time 5 day",0 CELLS/uL
same,ABSOLUTE EOSINOPHIL,"120 h, time 5 day",0 CELLS/uL
same,ABSOLUTE LYMPHOCYTE,"120 h, time 5 day",14587.33 CELLS/uL
same,ABSOLUTE MONOCYTE,"120 h, time 5 day",796.67 CELLS/uL
same,ABSOLUTE SEGMENTED NEUTROPHIL,"120 h, time 5 day",1949.33 CELLS/uL
same,BASOPHIL,"120 h, time 5 day",0%
same,EOSINOPHIL,"120 h, time 5 day",0%
same,ERYTHROCYTE COUNT,"120 h, time 5 day",6.53 x10E6/uL
same,HEMATOCRIT,"120 h, time 5 day",39.67%
same,HEMOGLOBIN,"120 h, time 5 day",15.9 G/DL
same,LEUKOCYTE COUNT,"120 h, time 5 day",17.33 x10E3/uL
same,LYMPHOCYTE,"120 h, time 5 day",84.67%
same,MEAN CORPUSCULAR HEMOGLOBIN,"120 h, time 5 day",24.4 pg
same,MEAN CORPUSCULAR HEMOGLOBIN CONCENTRATION,"120 h, time 5 day",40.13 G/DL
same,MEAN CORPUSCULAR VOLUME,"120 h, time 5 day",60.83 fL
same,MONOCYTE,"120 h, time 5 day",4.33%
same,NEUTROPHIL,"120 h, time 5 day",11%
same,NUCLEATED RED BLOOD CELLS,"120 h, time 5 day",0 /100WBC
same,PLATELET COUNT,"120 h, time 5 day",1382.33 x10E3/uL
same,ALANINE AMINOTRANSFERASE,"120 h, time 5 day",67 u/L
same,ALBUMIN,"120 h, time 5 day",3.7 G/DL
same,ALKALINE PHOSPHATASE,"120 h, time 5 day",311.67 u/L
same,ASPARTATE AMINOTRANSFERASE,"120 h, time 5 day",107.33 u/L
same,BLOOD UREA NITROGEN,"120 h, time 5 day",13.67 mg/dL
same,CARBON DIOXIDE,"120 h, time 5 day",29 mmol/L
same,CHLORIDE,"120 h, time 5 day",100 MEQ/L
same,CHOLESTEROL,"120 h, time 5 day",107.67 mg/dL
same,CREATINE PHOSPHOKINASE,"120 h, time 5 day",532.67 u/L
same,CREATININE,"120 h, time 5 day",0.21 mg/dL
same,GLUCOSE,"120 h, time 5 day",130.33 mg/dL
same,LACTATE DEHYDROGENASE,"120 h, time 5 day",259.67 u/L
same,LIPASE,"120 h, time 5 day",9.33 u/L
same,PHOSPHORUS,"120 h, time 5 day",9.97 mg/dL
same,POTASSIUM,"120 h, time 5 day",9.14 MEQ/L
same,SODIUM,"120 h, time 5 day",141.8 MEQ/L
same,TOTAL BILIRUBIN,"120 h, time 5 day",0.1 mg/dL
same,TOTAL PROTEIN,"120 h, time 5 day",6.13 G/DL
same,URIC ACID,"120 h, time 5 day",1.27 mg/dL
